Reference: patent publication US12599597B2, “Substituted N-benzhydrylacetamide inhibitors of jumanji domain histone demethylases for the treatment of cancer” (University of Kentucky Research Foundation, priority 2020, dated 2026)

Columns and labels:
SW620 = test: Colon cancer cell proliferation; assay type: cell-based; details: SW620 (APC mutation); 5d, Vi-Cell viability assay
Text: FIGS. 5A-B show an image and graph illustrating validation of CBA-1. (A) CBA-1 repressed Wnt targets in LS174T CRC cells. (B) CBA-1 inhibited CRC cell proliferation (5d, Vi-Cell viability assay).
(§1) Identification of a CBA-1 as a novel Wnt inhibitor. The present inventors routinely use TOPFlash reporter assay for Wnt inhibitor screening. To mimic the constitutively active Wnt signaling found in CRC cells, Wnt signaling was activated by inhibiting GSK3 and stabilizing β-catenin. From screening in house small-molecule libraries, CBA-1 (FIG. 4) was identified that inhibited Wnt signaling in TOPFlash reporter assay. To validate the screening results, CBA-1 was tested in CRC cells.

[1] = tested on: CRC organoids from Apc^f/+/Kras^LSL-G12D/Villin-Cre mice; test: Mouse CRC organoids formation; assay type: cell-based; details: 3 μM; p<0.01
Procedure: FIGS. 11A-B show an image and a graph illustrating mouse CRC organoids. (A) CRC organoids from Apc^f/+/Kras^LsL-G12D/Villin-Cre mice. (B) CBA-1 (3 μM) inhibited CRC organoids (*p<0.01; n=3).
CRC organoids models. To analyze the effects of CBA-1 in CRC, a colon cancer organoid model was established from Apc^f/+/Kras^LSL-G12D/Villin-Cre mice (FIG. 11A).

JMJD3 (KDM6B) = JMJD3 (KDM6B) (Homo sapiens, UniProt O15054); test: Histone demethylase assay, purified enzyme panel; assay type: biochemical; details: 58B1, 10 μM
Text: (§2) Histone Demethylase Assay
(§3) To further examine the effects of 58B1 on histone demethylase, we screened a panel of purified histone demethylases was screened.

Jarid1B (KDM5B) = Jarid1B (KDM5B) (Homo sapiens, UniProt Q9UGL1); test: Histone demethylase assay, purified enzyme panel; assay type: biochemical; details: 58B1, 10 μM
Jarid1B (KDM5B), sequence (Q9UGL1 whole entry): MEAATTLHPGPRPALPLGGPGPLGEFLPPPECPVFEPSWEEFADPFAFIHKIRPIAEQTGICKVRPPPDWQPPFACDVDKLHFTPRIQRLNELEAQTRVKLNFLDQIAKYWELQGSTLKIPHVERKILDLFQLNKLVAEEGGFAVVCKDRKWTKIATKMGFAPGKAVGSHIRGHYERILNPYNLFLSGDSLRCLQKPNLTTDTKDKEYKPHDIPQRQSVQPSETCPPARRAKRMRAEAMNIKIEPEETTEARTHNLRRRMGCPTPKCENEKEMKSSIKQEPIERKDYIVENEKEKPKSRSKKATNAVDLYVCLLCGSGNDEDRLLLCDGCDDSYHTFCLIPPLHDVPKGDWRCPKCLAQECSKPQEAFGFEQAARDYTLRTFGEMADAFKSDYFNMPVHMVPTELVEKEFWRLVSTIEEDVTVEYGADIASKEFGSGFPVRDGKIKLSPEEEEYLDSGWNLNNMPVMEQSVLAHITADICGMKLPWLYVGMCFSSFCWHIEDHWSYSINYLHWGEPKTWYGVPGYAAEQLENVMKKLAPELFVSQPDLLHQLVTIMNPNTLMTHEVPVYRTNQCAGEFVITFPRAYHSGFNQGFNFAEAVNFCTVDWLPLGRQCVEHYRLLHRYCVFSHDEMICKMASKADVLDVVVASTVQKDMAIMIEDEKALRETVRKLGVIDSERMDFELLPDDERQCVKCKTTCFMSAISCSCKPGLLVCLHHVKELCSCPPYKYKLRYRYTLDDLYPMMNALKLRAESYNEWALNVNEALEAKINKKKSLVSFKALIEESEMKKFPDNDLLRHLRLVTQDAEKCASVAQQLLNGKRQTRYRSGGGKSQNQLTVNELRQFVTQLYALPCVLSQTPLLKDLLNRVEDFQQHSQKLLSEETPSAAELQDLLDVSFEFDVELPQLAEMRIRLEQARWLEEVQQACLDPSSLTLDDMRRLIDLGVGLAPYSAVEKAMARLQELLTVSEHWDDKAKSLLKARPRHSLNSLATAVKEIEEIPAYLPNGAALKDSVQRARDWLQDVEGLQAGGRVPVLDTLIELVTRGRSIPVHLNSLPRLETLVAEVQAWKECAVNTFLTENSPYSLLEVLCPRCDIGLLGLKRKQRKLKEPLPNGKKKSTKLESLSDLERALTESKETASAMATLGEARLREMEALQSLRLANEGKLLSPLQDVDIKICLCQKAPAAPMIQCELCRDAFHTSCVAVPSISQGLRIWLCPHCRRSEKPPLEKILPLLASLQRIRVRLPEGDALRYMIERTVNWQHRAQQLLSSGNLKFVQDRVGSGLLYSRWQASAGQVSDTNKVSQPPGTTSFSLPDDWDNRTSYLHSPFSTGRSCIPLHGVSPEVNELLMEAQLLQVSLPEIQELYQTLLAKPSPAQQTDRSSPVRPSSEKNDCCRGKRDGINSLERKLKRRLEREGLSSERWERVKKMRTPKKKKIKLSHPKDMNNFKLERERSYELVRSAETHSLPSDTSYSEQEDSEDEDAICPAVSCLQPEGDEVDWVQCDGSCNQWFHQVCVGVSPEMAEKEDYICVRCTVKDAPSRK
Text: as §2, §3

UTX (KDM6A) = UTX (KDM6A) (Homo sapiens, UniProt O15550); test: Histone demethylase assay, purified enzyme panel; assay type: biochemical; details: 58B1, 10 μM
UTX (KDM6A), sequence (O15550 whole entry): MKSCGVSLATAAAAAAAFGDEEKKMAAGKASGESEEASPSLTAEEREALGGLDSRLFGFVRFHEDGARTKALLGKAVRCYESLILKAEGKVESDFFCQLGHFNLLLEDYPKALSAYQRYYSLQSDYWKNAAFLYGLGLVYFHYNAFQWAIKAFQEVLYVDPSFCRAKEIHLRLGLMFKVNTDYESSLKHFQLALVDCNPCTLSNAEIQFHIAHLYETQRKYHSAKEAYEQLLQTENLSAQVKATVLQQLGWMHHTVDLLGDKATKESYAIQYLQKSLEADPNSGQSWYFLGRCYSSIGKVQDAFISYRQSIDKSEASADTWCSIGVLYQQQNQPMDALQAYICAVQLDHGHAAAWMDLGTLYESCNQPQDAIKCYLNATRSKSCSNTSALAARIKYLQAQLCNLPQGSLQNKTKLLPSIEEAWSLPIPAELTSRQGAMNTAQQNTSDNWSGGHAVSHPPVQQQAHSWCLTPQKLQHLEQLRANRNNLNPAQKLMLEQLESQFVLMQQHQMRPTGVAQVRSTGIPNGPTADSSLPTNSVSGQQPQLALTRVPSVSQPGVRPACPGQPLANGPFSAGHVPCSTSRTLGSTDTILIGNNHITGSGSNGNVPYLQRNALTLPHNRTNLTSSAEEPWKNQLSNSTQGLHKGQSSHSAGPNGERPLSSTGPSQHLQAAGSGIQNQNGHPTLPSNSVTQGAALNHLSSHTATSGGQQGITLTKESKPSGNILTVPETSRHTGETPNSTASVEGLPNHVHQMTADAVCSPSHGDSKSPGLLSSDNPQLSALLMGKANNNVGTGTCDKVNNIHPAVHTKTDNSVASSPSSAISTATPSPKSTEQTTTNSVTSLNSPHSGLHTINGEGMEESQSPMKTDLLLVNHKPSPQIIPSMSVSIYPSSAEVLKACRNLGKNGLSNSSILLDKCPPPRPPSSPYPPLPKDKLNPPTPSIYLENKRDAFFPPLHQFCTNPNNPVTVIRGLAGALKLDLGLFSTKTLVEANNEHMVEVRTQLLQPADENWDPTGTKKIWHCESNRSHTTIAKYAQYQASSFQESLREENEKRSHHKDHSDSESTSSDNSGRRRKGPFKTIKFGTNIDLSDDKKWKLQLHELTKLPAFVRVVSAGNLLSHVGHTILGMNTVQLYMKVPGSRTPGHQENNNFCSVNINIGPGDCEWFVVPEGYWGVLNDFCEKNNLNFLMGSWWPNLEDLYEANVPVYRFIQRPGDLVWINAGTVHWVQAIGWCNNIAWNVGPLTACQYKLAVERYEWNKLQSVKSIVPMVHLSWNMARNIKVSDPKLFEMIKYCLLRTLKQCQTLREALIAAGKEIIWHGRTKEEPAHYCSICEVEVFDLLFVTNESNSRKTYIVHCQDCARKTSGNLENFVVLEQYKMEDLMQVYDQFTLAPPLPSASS
Text: as §2, §3

KDM3B = KDM3B (Homo sapiens, UniProt Q7LBC6); test: KDM3B enzymatic activity; assay type: biochemical; details: at 10 μM
KDM3B, sequence (Q7LBC6 whole entry, the tested form may be a part): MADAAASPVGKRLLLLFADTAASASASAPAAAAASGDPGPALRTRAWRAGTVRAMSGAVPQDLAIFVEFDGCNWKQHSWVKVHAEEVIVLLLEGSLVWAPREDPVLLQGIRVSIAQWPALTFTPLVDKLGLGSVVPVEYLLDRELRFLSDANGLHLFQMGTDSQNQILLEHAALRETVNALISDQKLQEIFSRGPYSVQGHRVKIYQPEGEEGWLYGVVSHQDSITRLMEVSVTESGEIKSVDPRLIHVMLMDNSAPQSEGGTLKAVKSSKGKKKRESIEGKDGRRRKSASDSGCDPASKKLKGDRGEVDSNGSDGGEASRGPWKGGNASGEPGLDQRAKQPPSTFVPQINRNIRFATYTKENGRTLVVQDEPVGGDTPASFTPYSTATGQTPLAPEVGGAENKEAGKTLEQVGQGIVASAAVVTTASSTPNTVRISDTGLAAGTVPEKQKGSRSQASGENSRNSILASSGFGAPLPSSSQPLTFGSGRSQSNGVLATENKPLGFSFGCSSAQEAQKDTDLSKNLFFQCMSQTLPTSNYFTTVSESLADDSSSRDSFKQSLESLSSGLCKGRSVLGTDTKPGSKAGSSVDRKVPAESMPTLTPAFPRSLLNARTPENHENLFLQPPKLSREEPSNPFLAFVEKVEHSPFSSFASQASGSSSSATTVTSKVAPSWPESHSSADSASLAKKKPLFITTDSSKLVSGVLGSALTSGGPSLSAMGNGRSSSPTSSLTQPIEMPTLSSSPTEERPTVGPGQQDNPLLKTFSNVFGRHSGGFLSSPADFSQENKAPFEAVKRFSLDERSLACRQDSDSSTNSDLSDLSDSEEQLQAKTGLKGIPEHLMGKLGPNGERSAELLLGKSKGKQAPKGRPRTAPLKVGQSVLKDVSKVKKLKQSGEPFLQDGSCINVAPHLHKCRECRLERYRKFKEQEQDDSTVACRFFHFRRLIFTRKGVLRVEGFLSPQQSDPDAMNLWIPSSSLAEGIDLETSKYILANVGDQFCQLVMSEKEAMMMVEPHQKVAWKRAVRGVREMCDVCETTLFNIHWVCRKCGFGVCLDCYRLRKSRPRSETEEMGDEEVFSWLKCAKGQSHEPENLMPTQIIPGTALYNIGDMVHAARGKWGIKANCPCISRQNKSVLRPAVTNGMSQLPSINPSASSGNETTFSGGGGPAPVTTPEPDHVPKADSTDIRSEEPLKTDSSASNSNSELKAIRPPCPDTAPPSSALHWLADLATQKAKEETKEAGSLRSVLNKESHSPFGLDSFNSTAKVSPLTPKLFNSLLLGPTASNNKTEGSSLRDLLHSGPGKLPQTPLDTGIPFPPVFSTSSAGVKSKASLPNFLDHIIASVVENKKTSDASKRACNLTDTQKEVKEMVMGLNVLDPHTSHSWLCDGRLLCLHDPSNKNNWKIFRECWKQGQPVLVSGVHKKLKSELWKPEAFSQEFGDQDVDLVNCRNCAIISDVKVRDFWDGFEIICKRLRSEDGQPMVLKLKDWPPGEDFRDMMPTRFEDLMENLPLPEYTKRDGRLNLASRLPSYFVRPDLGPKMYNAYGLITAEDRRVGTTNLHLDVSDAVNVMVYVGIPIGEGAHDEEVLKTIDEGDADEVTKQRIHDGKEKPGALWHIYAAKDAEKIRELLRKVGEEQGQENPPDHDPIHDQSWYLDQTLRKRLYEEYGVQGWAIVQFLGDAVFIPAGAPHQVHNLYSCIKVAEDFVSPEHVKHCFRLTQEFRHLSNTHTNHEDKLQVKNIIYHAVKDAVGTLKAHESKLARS
Text: Other KDM3 members as CBA-1 targets. Inhibition of KDM3A by CBA-1 increased H3K9Me^2 and inhibited Wnt signaling; however, other KDM3 members may also regulate H3K9 methylation. For example, both KDM3B and KDM3C (JMJD1C) regulated Wnt signaling. Given the high similarity of their structures (FIG. 10A), particularly the JmjC domains, it is believed that CBA-1 would inhibit KDM3B and KDM3C as well. […] CBA-1 coordinated with Mn^2+ at a longer distance in KDM3B (3.9 Å) than the distance in KDM3A (2.8 Å) (FIGS. 8B and 10B). This could be one of the reasons that CBA-1 inhibited KDM3A better than KDM3B.
Repurposing drugs as CBA-1 analogs and KDM3 inhibitors. CBA-1 is a specific and potent KDM3A inhibitor. As backup candidates, two approved drugs were identified as CBA-1 analogs and KDM3A inhibitors. Based on the docking study (FIGS. 8A-B), the N and OH groups (red color in FIG. 12A) are critical in binding the Mn^2+ in KDM3A. […] A virtual screening was performed and several antibiotics that have similar structures were identified. Two of these antibiotics, clioquinol and nitroxoline (FIG. 12B), indeed inhibited the enzymatic activities of KDM3 (FIGS. 12C and D). These two drugs were tested in LS174T tumor xenograft model in SCID mice. […] Nitroxoline has been used in Europe for over 50 years as an antibiotic. It has anticancer effects, but the mechanism remains unclear.

[2] = tested on: Wnt target genes in LS174T colon cancer cells; test: Western blotting of Wnt target genes in colon cancer cells; assay type: cell-based
Text: The activities of 58B1 were validated by western blotting.
as §1

Wnt signaling = test: Zebrafish Wnt signaling models; assay type: in vivo
Text: FIGS. 1A-F show a KDM3A inhibitor, called “58B1,” that inhibited Wnt signaling in vitro and in vivo. (A) Docking of 58B1 to the Jumonji domain. (B) 58B1 inhibited KDM3A enzymatic activity in vitro. (C) KDM3A was overexpressed in CRC. (D) 58B1 increased repressor markers, H3K9Me^2 and K3K9Me^3. (E) 58B1 inhibited Wnt target genes in CRC cells. (F) 58B1 inhibited Wnt signaling in a transgenic zebrafish model. In this model, GFP was control by a Wnt-responsive promoter. In the control fish, GFP was expressed in the tail, where has higher levels on Wnt signaling. 58B1 treatment abolished GFP expression in the tail.
CBA-1 inhibited Wnt signaling in Zebrafish models. Zebrafish provide a well-established in vivo model to study Wnt signaling. Wnt signaling is active in the tail of the larvae during development (FIG. 4), and CBA-1 inhibited Wnt signaling in the tail. […] To rule out the possibility that CBA-1 inhibits the Wnt-mediated phenotype through nonspecific or even toxic effects, an eye-rescue experiment was performed.

CCCC(=O)NC(c1ccc(N(CC)CC)cc1)c1cc(Cl)c2cccnc2c1O (stereo not shown) [58B1]
proliferation of CRC cell lines (SW620): inhibited proliferation | mouse CRC organoids formation [1]: significantly inhibited | inhibition at 10 µM (JMJD3 (KDM6B)): 94% | inhibition at 10 µM (Jarid1B (KDM5B)): 95% | inhibition at 10 µM (UTX (KDM6A)): 100% | KDM3B inhibition (KDM3B): weakly inhibits | expression of Wnt target genes ([2]; 5 μM, LS174T, western blotting): strongly inhibited | expression of Wnt target genes ([2]; CRC cells (LS174T), concentration not given): repressed | GFP expression in the tail (Wnt-responsive promoter) (Wnt signaling; transgenic zebrafish model): abolished | Wnt-dependent tail regeneration (Wnt signaling; zebrafish): reduced | toxicity in eye-rescue experiment (Wnt signaling; zebrafish): without obvious toxicity effects | Wnt signaling in the tail (Wnt signaling; zebrafish larvae): inhibited | Wnt-induced eye defects (eye-rescue experiment) (Wnt signaling; zebrafish, dose-responsive manner): rescued
